According to US6352958B1, “Cycloimido-substituted benzofused heterocyclic herbicides” (FMC Corporation, priority 1997, dated 2002):

Experiments:
Assay type in all cases: in vivo
[1] = tested on: soybean (Glycine max var. Winchester); experiment: Preemergence herbicidal activity, soybean; conditions: Rate of Application 0.3 Kg/Ha, examined after 12-17 days
[2] = tested on: wheat (Triticum aestivum var. Lew); experiment: Preemergence herbicidal activity, wheat; conditions: Rate of Application 0.3 Kg/Ha, examined after 12-17 days
[3] = tested on: field corn (Zea mays var. Pioneer 3732); experiment: Preemergence herbicidal activity, corn; conditions: Rate of Application 0.3 Kg/Ha, examined after 12-17 days
[4] = tested on: velvetleaf (Abutilon theophrasti); experiment: Preemergence herbicidal activity, velvetleaf; conditions: Rate of Application 0.3 Kg/Ha, examined after 12-17 days
[5] = tested on: morningglory (Ipomea lacunosa or Ipomea hederacea); experiment: Preemergence herbicidal activity, morningglory; conditions: Rate of Application 0.3 Kg/Ha, examined after 12-17 days
[6] = tested on: common chickweed (Stellaria media); experiment: Preemergence herbicidal activity, chickweed; conditions: Rate of Application 0.3 Kg/Ha, examined after 12-17 days
[7] = tested on: common cocklebur (Xanthium strumarium L.); experiment: Preemergence herbicidal activity, cocklebur; conditions: Rate of Application 0.3 Kg/Ha, examined after 12-17 days
[8] = tested on: blackgrass (Aloepecurus myosuroides); experiment: Preemergence herbicidal activity, blackgrass; conditions: Rate of Application 0.3 Kg/Ha, examined after 12-17 days
[9] = tested on: green foxtail (Setaria viridis); experiment: Preemergence herbicidal activity, green foxtail; conditions: Rate of Application 0.3 Kg/Ha, examined after 12-17 days
[10] = tested on: Johnsongrass (Sorghum halepense); experiment: Preemergence herbicidal activity, johnsongrass; conditions: Rate of Application 0.3 Kg/Ha, examined after 12-17 days
[11] = tested on: soybean (Glycine max var. Winchester); experiment: Postemergence herbicidal activity, soybean; conditions: rate of application 0.3 Kg/Ha, rated after 12-17 days
[12] = tested on: wheat (Triticum aestivum var. Lew); experiment: Postemergence herbicidal activity, wheat; conditions: rate of application 0.3 Kg/Ha, rated after 12-17 days
[13] = tested on: field corn (Zea mays var. Pioneer 3732); experiment: Postemergence herbicidal activity, corn; conditions: rate of application 0.3 Kg/Ha, rated after 12-17 days
[14] = tested on: velvetleaf (Abutilon theophrasti); experiment: Postemergence herbicidal activity, velvetleaf; conditions: rate of application 0.3 Kg/Ha, rated after 12-17 days
[15] = tested on: morningglory (Ipomea lacunosa or Ipomea hederacea); experiment: Postemergence herbicidal activity, morningglory; conditions: rate of application 0.3 Kg/Ha, rated after 12-17 days
[16] = tested on: common chickweed (Stellaria media); experiment: Postemergence herbicidal activity, chickweed; conditions: rate of application 0.3 Kg/Ha, rated after 12-17 days
[17] = tested on: common cocklebur (Xanthium strumarium L.); experiment: Postemergence herbicidal activity, cocklebur; conditions: rate of application 0.3 Kg/Ha, rated after 12-17 days
[18] = tested on: blackgrass (Aloepecurus myosuroides); experiment: Postemergence herbicidal activity, blackgrass; conditions: rate of application 0.3 Kg/Ha, rated after 12-17 days
[19] = tested on: green foxtail (Setaria viridis); experiment: Postemergence herbicidal activity, green foxtail; conditions: rate of application 0.3 Kg/Ha, rated after 12-17 days
[20] = tested on: Johnsongrass (Sorghum halepense); experiment: Postemergence herbicidal activity, johnsongrass; conditions: rate of application 0.3 Kg/Ha, rated after 12-17 days

| Structure (SMILES) | PREEMERGENCE HERBICIDAL ACTIVITY (% CONTROL) SOY [1] | PREEMERGENCE HERBICIDAL ACTIVITY (% CONTROL) WHT [2] | PREEMERGENCE HERBICIDAL ACTIVITY (% CONTROL) CRN [3] | PREEMERGENCE HERBICIDAL ACTIVITY (% CONTROL) ABUTH [4] | PREEMERGENCE HERBICIDAL ACTIVITY (% CONTROL) IPOSS [5] | PREEMERGENCE HERBICIDAL ACTIVITY (% CONTROL) STEME [6] | PREEMERGENCE HERBICIDAL ACTIVITY (% CONTROL) XANPE [7] | PREEMERGENCE HERBICIDAL ACTIVITY (% CONTROL) ALOMY [8] | PREEMERGENCE HERBICIDAL ACTIVITY (% CONTROL) SETVI [9] | PREEMERGENCE HERBICIDAL ACTIVITY (% CONTROL) SORHA [10] | Postemergence herbicidal activity (% control) SOY [11] | Postemergence herbicidal activity (% control) WHT [12] | Postemergence herbicidal activity (% control) CRN [13] | Postemergence herbicidal activity (% control) ABUTH [14] | Postemergence herbicidal activity (% control) IPOSS [15] | Postemergence herbicidal activity (% control) STEME [16] | Postemergence herbicidal activity (% control) XANPE [17] | Postemergence herbicidal activity (% control) ALOMY [18] | Postemergence herbicidal activity (% control) SETVI [19] | Postemergence herbicidal activity (% control) SORHA [20] |
| --- | --- | --- | --- | --- | --- | --- | --- | --- | --- | --- | --- | --- | --- | --- | --- | --- | --- | --- | --- | --- |
| Cn1c(C(F)(F)F)cc(=O)n(-c2c(F)cc(Cl)c3cc(C(N)=O)oc23)c1=O [Compound 273] | 100% | 80% | 90% | 100% | 100% | 100% | 100% | 90% | 100% | 100% | 95% | 60% | 95% | 100% | 100% | 90% | 100% | 80% | 100% | 100% |
| Cc1nc2c(-n3c(=O)cc(C(F)(F)F)n(C)c3=O)c(F)cc(Br)c2o1 [Compound 16] | 100% | 70% | 90% | 100% | 100% | 100% | 90% | 80% | 100% | 95% | 95% | 60% | 80% | 100% | 100% | 70% | 95% | 70% | 80% | 80% |
| Cn1c(C(F)(F)F)cc(=O)n(-c2c(F)cc(Br)c3oc(NS(C)(=O)=O)nc23)c1=O [Compound 108] | 0% | 0% | 10% | 70% | 50% | 40% | 10% | 50% | 50% | 30% | 50% | 20% | 60% | 20% | 60% | 0% | 10% | 10% | 70% | 20% |
| COC(=O)CCc1cc2c(Cl)cc(F)c(-n3c(=O)cc(C(F)(F)F)n(C)c3=O)c2o1 [Compound 263] | 100% | 50% | 65% | 100% | 100% | 100% | 95% | 75% | 100% | 70% | 95% | 80% | 90% | 100% | 100% | 100% | 100% | 60% | 90% | 70% |
| Cn1c(C(F)(F)F)cc(=O)n(-c2c(F)cc(Cl)c3oc(C(C)(C)C)nc23)c1=O [Compound 30] | 100% | 100% | 95% | 100% | 100% | 100% | 90% | 100% | 100% | 100% | 95% | 80% | 90% | 100% | 100% | 100% | 100% | 90% | 100% | 100% |
| COC(C)(C)c1cc2c(Cl)ccc(-n3c(=O)cc(C(F)(F)F)n(C)c3=O)c2o1 [Compound 251] | 90% | 90% | 95% | 100% | 100% | 95% | 100% | 90% | 100% | 100% | 95% | 70% | 90% | 100% | 100% | 100% | 95% | 100% | 100% | 95% |
